Measured values taken from ChEMBL document CHEMBL1201862, “PubChem BioAssay data set” (2004).
Values belong to the compound of their own block, whether it stands above or below them. Active and inactive are the calls of the source.

What was measured:
Leucine aminopeptidase = molecular target: T1, Leucine aminopeptidase (Plasmodium falciparum 3D7, UniProt Q8IL11); experiment: P. falciparum M17LAP inhibitors, primary screen, biochemical, fluorogenic H-Leu-NHMec substrate, 1536-well (AID 1619); assay type: functional
T1 sequence (Q8IL11 whole entry): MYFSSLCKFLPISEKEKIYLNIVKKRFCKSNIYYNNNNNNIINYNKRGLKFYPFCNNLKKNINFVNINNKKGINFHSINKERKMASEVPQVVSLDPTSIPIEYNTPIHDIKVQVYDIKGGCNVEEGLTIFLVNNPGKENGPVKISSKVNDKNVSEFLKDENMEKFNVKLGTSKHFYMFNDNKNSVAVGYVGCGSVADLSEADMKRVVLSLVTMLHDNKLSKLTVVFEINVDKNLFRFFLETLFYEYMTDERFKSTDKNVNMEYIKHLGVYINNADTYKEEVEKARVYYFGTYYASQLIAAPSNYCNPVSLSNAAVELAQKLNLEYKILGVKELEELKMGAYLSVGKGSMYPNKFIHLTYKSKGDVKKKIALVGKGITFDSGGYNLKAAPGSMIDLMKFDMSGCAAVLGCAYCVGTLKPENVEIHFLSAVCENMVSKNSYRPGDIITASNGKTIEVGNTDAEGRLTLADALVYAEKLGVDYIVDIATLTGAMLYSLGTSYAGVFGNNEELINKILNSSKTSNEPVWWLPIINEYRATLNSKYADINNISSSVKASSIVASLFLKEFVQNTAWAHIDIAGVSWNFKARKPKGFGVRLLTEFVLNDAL

Aspartyl aminopeptidase = molecular target: T2, Aspartyl aminopeptidase (Plasmodium falciparum 3D7, UniProt Q8I2J3); experiment: Counterscreen for inhibitors of M1 and M17 aminopeptidases: QFRET-based biochemical high throughput dose response assay for inhibitors of the Plasmodium falciparum M18 Aspartyl Aminopeptidase (PFM18AAP). [Related PubChem assays: 1619 (Screening assay (M17LAP inhibitors).), 1445 (Screening assay (M1AAP inhibitors).)]
T2 sequence (Q8I2J3 whole entry): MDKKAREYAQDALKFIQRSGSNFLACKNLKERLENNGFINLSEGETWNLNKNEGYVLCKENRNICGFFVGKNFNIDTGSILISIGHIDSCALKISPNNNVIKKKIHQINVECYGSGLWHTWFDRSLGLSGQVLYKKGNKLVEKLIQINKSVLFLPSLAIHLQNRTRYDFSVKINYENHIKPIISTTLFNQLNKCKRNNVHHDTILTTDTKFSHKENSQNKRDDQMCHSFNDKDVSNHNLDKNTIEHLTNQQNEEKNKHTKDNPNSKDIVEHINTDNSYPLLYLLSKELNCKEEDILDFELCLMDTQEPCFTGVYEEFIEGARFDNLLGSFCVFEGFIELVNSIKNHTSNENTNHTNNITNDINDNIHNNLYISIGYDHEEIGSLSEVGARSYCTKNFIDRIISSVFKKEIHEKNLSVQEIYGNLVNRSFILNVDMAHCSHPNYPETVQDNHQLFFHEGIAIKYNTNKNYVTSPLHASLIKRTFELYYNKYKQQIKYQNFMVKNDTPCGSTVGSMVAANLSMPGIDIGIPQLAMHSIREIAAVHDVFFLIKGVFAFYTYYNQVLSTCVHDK

Procathepsin L = Procathepsin L (Homo sapiens, UniProt P07711); experiment: cathepsin L inhibitors, dose response, counter-screen for M1/M17 aminopeptidase inhibitor project, biochemical, QFRET, 1536-well (AID 2214)
Chain of Procathepsin L (P07711 whole entry): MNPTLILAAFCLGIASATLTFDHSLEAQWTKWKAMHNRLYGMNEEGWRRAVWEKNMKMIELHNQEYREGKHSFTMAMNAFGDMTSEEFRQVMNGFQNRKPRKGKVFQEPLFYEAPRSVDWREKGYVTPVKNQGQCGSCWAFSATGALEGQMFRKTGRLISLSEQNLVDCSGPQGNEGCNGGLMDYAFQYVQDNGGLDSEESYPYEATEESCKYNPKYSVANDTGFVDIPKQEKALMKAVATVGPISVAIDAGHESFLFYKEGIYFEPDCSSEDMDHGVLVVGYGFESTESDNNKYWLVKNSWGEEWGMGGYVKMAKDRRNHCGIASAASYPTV

[1] = molecular target: G-protein coupled receptor 55 (Homo sapiens, UniProt Q9Y2T6); experiment: GPR55 agonists via beta-arrestin recruitment, primary screen, imaging, U2OS cells, beta-arrestin-GFP redistribution (AID 1961); assay type: functional
Chain of G-protein coupled receptor 55 (Q9Y2T6 whole entry): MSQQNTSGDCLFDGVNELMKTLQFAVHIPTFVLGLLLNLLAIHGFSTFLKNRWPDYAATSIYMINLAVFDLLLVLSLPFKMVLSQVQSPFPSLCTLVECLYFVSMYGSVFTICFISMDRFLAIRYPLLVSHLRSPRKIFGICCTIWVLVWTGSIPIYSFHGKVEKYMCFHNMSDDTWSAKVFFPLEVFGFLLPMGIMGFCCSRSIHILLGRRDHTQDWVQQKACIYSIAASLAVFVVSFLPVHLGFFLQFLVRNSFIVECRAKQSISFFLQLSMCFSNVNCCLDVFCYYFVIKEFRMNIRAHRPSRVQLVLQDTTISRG

Coagulation factor XII = molecular target: T3, Coagulation factor XII (Homo sapiens, UniProt P00748); experiment: FXIIa inhibitor potency, concentration-response, biochemical (AID 716); assay type: functional
T3 sequence (P00748 whole entry): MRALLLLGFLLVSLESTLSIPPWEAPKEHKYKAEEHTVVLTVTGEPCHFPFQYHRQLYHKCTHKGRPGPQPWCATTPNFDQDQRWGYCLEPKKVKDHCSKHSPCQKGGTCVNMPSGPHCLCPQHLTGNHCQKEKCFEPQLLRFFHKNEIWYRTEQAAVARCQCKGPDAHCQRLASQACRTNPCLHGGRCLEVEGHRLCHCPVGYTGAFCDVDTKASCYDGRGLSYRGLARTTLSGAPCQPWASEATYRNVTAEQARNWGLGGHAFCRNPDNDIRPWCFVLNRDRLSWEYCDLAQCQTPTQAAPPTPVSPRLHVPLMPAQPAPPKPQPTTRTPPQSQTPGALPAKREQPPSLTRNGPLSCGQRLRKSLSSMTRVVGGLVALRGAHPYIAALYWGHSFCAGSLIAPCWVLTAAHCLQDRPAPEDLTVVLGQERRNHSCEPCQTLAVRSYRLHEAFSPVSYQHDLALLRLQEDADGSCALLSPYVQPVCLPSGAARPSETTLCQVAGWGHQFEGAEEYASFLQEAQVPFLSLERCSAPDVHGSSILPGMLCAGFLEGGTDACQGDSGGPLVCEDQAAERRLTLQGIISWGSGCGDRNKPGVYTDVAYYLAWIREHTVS

Hexokinase = Hexokinase (Trypanosoma brucei, UniProt Q38C41); experiment: Confirmation assay for inhibitors of Trypanosoma brucei hexokinase 1-Analogue-first series. [Related pubchem assays (depositor defined):AID1430, AID1632, AID2516, AID2560, AID2579, AID2600, AID449725, AID492951]; assay type: functional
Chain of Hexokinase (Q38C41 whole entry): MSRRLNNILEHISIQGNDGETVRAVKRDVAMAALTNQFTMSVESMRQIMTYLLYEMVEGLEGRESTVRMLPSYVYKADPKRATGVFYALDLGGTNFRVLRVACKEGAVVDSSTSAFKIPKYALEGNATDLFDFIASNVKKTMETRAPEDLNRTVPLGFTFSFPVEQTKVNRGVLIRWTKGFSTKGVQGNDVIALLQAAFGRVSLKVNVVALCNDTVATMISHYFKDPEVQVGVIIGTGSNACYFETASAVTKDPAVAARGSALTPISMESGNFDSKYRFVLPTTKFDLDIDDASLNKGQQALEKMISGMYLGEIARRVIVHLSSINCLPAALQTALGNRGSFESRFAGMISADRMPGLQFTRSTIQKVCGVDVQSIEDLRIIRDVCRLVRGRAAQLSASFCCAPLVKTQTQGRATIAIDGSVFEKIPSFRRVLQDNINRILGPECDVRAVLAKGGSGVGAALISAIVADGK

[2] = molecular target: Glucose-6-phosphate 1-dehydrogenase (Homo sapiens, UniProt P11413); experiment: human G6PD enzyme inhibitors, dose response, selectivity assay for P. falciparum G6PD inhibitor project, biochemical, fluorescence (AID 504792); assay type: functional
Chain of Glucose-6-phosphate 1-dehydrogenase (P11413 whole entry): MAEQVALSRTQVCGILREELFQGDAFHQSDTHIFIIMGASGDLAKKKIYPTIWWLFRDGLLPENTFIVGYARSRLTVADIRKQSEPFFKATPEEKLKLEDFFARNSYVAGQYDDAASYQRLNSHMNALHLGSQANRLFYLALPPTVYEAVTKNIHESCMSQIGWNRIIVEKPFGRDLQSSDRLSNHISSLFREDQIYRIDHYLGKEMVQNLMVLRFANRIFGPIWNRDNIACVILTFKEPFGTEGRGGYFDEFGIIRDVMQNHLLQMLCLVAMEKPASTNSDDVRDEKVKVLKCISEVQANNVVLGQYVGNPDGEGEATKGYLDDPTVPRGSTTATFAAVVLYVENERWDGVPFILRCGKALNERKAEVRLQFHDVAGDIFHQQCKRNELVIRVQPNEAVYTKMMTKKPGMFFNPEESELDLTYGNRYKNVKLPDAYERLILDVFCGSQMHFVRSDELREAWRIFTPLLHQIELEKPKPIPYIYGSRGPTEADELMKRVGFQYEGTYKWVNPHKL

[3] = molecular target: T4, Polyadenylate-binding protein 1 (Homo sapiens, UniProt P11940); experiment: PABP1 MLLE–PAM2 interaction inhibitors, dose response, miRNA deadenylation inhibitor project, biochemical, fluorescence polarization, Cy5-PAM2 peptide, secondary (AID 602260); assay type: functional; conditions: read-out: IC50_Mean
T4 sequence (P11940 whole entry): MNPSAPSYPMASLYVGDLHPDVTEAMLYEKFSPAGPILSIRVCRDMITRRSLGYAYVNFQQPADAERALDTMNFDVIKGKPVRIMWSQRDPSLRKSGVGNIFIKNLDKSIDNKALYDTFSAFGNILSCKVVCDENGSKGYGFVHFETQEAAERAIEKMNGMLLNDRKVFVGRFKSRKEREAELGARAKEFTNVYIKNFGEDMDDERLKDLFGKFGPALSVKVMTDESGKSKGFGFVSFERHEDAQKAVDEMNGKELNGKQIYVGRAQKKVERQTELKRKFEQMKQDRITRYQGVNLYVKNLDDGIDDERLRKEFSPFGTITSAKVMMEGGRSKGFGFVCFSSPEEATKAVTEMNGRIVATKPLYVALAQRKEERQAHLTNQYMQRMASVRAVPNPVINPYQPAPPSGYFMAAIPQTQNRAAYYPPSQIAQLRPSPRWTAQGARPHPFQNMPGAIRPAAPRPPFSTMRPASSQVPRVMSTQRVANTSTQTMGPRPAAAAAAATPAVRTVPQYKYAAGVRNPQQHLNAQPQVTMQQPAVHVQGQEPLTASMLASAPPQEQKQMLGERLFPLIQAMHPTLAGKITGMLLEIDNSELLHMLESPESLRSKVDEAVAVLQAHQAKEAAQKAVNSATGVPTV

[4] = molecular target: T4, Polyadenylate-binding protein 1; experiment: PABP1 MLLE–PAM2 binding inhibitor potency, dose response, biochemical, fluorescence polarization, FITC-PAM2 peptide (AID 602259); assay type: functional; conditions: read-out: IC50_Mean

IC50 (Leucine aminopeptidase): < 1 µM (active)
IC50 (Aspartyl aminopeptidase): > 73.5 µM (not active)
IC50 (Procathepsin L): > 59.6 µM (not active)
EC50 [1]: 30.3 µM (inactive)
Structure (SMILES): O=C(CSc1nnc(Nc2ccccc2)s1)NN1C(=O)NC2(CCCCC2)C1=O

IC50 (Coagulation factor XII): 3.76 µM (active)
Structure (SMILES): COc1ccc2c(c1)CCc1c(C(=O)NCc3cccnc3)noc1-2

Structure (SMILES): N#Cc1ccc2c(=O)n(-c3ccccc3)sc2c1
IC50 (Hexokinase): 6.66 µM (active)
IC50 [2]: 7.11 µM (active)
IC50 [3]: > 66 µM (inactive)
IC50 [4]: > 66 µM (inactive)
